Results taken from ChEMBL document CHEMBL1201862, “PubChem BioAssay data set” (2004).
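Where inhibition never reached the appropriate level, the endpoint shown equals the highest concentration tested. Otherwise, values were interpolated linearly from a five-concentration, 48-hour dose response in 96-well plates. Abbreviation: GI50, concentration required for 50% inhibition of growth.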 The source made the active and inactive calls. Cut-off read from the data, not from the text of the source: active = GI50 up to about 1.1 µM and inactive = higher. Numbered stars: 1 amine (or outer) side, 2 acyl side, 3 side chain; on linkers, the order of the positions; unused ones are H or OH. Square brackets hold non-standard residues; d marks the D form. Peptide text beside a SMILES is read from it. * marks the point of attachment. X30 = CC(=O)N(C)SCC(N[*:1])C(=O)[*:2]; Cbz = O=C(OCc1ccccc1)*; Bn = c1ccc(C*)cc1

Tests used:
Assay in all cases: DTP human tumour cell line panel, 48 h
[1] = test system: T47D
[2] = test system: Hs-578T
[3] = test system: HOP-92
[4] = test system: UACC-257
[5] = test system: OVCAR-8
[6] = test system: BT-549
[7] = test system: Malme-3M
[8] = test system: RPMI-8226
[9] = test system: SN12C
[10] = test system: MOLT-4
[11] = test system: NCI-H23
[12] = test system: HCT-116
[13] = test system: MDA-N
[14] = test system: HL-60
[15] = test system: SK-MEL-5
[16] = test system: HOP-62
[17] = test system: SK-MEL-2
[18] = test system: UACC-62
[19] = test system: NCI/ADR-RES
[20] = test system: A498

Structure (SMILES)	GI50 [1]	GI50 [2]	GI50 [3]	GI50 [4]	GI50 [5]	GI50 [6]	GI50 [7]	GI50 [8]	GI50 [9]	GI50 [10]	GI50 [11]	GI50 [12]	GI50 [13]	GI50 [14]	GI50 [15]	GI50 [16]	GI50 [17]	GI50 [18]	GI50 [19]	GI50 [20]
CC1OC2OC3C(OCC(O)C3O)OC(=O)[C@]34CCC(C)(C)CC3C3=CCC5[C@@]6(C)C[C@H](O)[C@H](OC7OC(CO)C(O)C(O)C7OC7OC(COC(=O)CC(C)(O)CC(=O)OC1C(OC1OC(CO)C(O)C(O)C1O)C2O)C(O)C(O)C7O)[C@@](C)(CO)C6CC[C@@]5(C)[C@]3(C)CC4 (stereo not given in full)	3.34 µM (inactive)	8 µM (inactive)	2.24 µM (inactive)	1.64 µM (inactive)	3.92 µM (inactive)	6.03 µM (inactive)	2.41 µM (inactive)	2.51 µM (inactive)	4.98 µM (inactive)	2.98 µM (inactive)	1.51 µM (inactive)	2.59 µM (inactive)	1.44 µM (inactive)	1.44 µM (inactive)	0.137 µM (active)	1.46 µM (inactive)	1.58 µM (inactive)	1.64 µM (inactive)	3.15 µM (inactive)	–
Nc1ncnc2c1ncn2C1OC(COP(=O)(O)CP(=O)(O)O)C(O)C1O (stereo not given)	> 100 µM (inactive)	> 100 µM (inactive)	–	> 100 µM (inactive)	> 100 µM (inactive)	> 100 µM (inactive)	> 100 µM (inactive)	> 100 µM (inactive)	> 100 µM (inactive)	> 100 µM (inactive)	> 100 µM (inactive)	> 100 µM (inactive)	> 100 µM (inactive)	> 100 µM (inactive)	> 100 µM (inactive)	> 100 µM (inactive)	> 100 µM (inactive)	> 100 µM (inactive)	> 100 µM (inactive)	> 100 µM (inactive)
NS(=O)(=O)c1nnc(NC(=O)c2ccccc2)s1	> 100 µM (inactive)	> 100 µM (inactive)	65.3 µM (inactive)	> 100 µM (inactive)	> 100 µM (inactive)	> 100 µM (inactive)	> 100 µM (inactive)	> 100 µM (inactive)	> 100 µM (inactive)	> 100 µM (inactive)	> 100 µM (inactive)	> 100 µM (inactive)	> 100 µM (inactive)	–	> 100 µM (inactive)	> 100 µM (inactive)	> 100 µM (inactive)	> 100 µM (inactive)	> 100 µM (inactive)	> 100 µM (inactive)
C[N+](C)(CCCn1ccnc1[N+](=O)[O-])CCCn1ccnc1[N+](=O)[O-]	> 100 µM (inactive)	> 100 µM (inactive)	–	> 100 µM (inactive)	> 100 µM (inactive)	69.8 µM (inactive)	> 100 µM (inactive)	> 100 µM (inactive)	> 100 µM (inactive)	> 100 µM (inactive)	> 100 µM (inactive)	> 100 µM (inactive)	> 100 µM (inactive)	> 100 µM (inactive)	> 100 µM (inactive)	> 100 µM (inactive)	> 100 µM (inactive)	> 100 µM (inactive)	> 100 µM (inactive)	> 100 µM (inactive)
O=C1OC(c2ccc(O)c(Cl)c2)(c2ccc(O)c(Cl)c2)c2ccc(Br)c3cccc1c23.O=C1OC(c2ccc(O)c(Cl)c2)(c2ccc(O)c(Cl)c2)c2cccc3c(Br)ccc1c23	2.9 µM (inactive)	29.3 µM (inactive)	9.53 µM (inactive)	19.5 µM (inactive)	27.8 µM (inactive)	21.5 µM (inactive)	18.9 µM (inactive)	16.9 µM (inactive)	15 µM (inactive)	16.3 µM (inactive)	16.7 µM (inactive)	19.3 µM (inactive)	21 µM (inactive)	–	17.5 µM (inactive)	21.5 µM (inactive)	19.6 µM (inactive)	12.4 µM (inactive)	16.6 µM (inactive)	18.7 µM (inactive)
CN(CC#N)C(=O)Cc1ccc([N+](=O)[O-])cc1	> 10 µM (inactive)	> 10 µM (inactive)	–	> 10 µM (inactive)	> 10 µM (inactive)	> 10 µM (inactive)	> 10 µM (inactive)	> 10 µM (inactive)	> 10 µM (inactive)	> 10 µM (inactive)	> 10 µM (inactive)	> 10 µM (inactive)	> 10 µM (inactive)	> 10 µM (inactive)	> 10 µM (inactive)	> 10 µM (inactive)	> 10 µM (inactive)	> 10 µM (inactive)	> 10 µM (inactive)	> 10 µM (inactive)
CN(C)CCNc1ccc(NCC[N+](C)(C)Cc2ccc([N+](=O)[O-])cc2)c2c1C(=O)c1c(O)ccc(O)c1C2=O	36.3 µM (inactive)	28.9 µM (inactive)	–	–	> 100 µM (inactive)	18.8 µM (inactive)	–	7.57 µM (inactive)	12.2 µM (inactive)	0.509 µM (active)	54 µM (inactive)	15.8 µM (inactive)	20.7 µM (inactive)	54.2 µM (inactive)	10.8 µM (inactive)	79.3 µM (inactive)	> 100 µM (inactive)	31.6 µM (inactive)	> 100 µM (inactive)	> 100 µM (inactive)
O=C(O)c1cc(Cl)cc(Cc2cc(Cl)cc(C(=O)O)c2O)c1O	> 100 µM (inactive)	> 100 µM (inactive)	> 100 µM (inactive)	–	> 100 µM (inactive)	> 100 µM (inactive)	> 100 µM (inactive)	> 100 µM (inactive)	> 100 µM (inactive)	> 100 µM (inactive)	> 100 µM (inactive)	> 100 µM (inactive)	> 100 µM (inactive)	–	> 100 µM (inactive)	> 100 µM (inactive)	> 100 µM (inactive)	> 100 µM (inactive)	> 100 µM (inactive)	> 100 µM (inactive)
O=C1OC(C2Cc3cc4c(cc3C2=O)CCC4)c2ccccc21 (stereo not given)	71.3 µM (inactive)	22.5 µM (inactive)	–	> 100 µM (inactive)	67.1 µM (inactive)	> 10 µM (inactive)	> 100 µM (inactive)	35.3 µM (inactive)	63 µM (inactive)	23.7 µM (inactive)	47.1 µM (inactive)	36.6 µM (inactive)	75.3 µM (inactive)	42.9 µM (inactive)	21.3 µM (inactive)	65 µM (inactive)	65 µM (inactive)	20.7 µM (inactive)	63.4 µM (inactive)	25.9 µM (inactive)
CN(C)c1ccc(C2SCC(=O)N2c2ccc(Oc3ccc(Cl)cc3)c(Cl)c2)cc1 (stereo not given)	15.3 µM (inactive)	14.4 µM (inactive)	21.8 µM (inactive)	36.6 µM (inactive)	28.2 µM (inactive)	17 µM (inactive)	15.1 µM (inactive)	15.2 µM (inactive)	23.3 µM (inactive)	27.8 µM (inactive)	18.5 µM (inactive)	16.7 µM (inactive)	28.6 µM (inactive)	20.3 µM (inactive)	19.1 µM (inactive)	20.5 µM (inactive)	20.4 µM (inactive)	19 µM (inactive)	22.3 µM (inactive)	–
CC(=O)Nc1ccc2c(C)c3c(nc2n1)[nH]c1ccccc13	13.3 µM (inactive)	19.8 µM (inactive)	20.4 µM (inactive)	32.9 µM (inactive)	24.9 µM (inactive)	31.9 µM (inactive)	–	27.2 µM (inactive)	30.5 µM (inactive)	19.7 µM (inactive)	25.2 µM (inactive)	21.6 µM (inactive)	18.1 µM (inactive)	–	14.9 µM (inactive)	32.2 µM (inactive)	22.6 µM (inactive)	22.6 µM (inactive)	22.1 µM (inactive)	60.7 µM (inactive)
CC(=O)N(C)SCC(NC(=O)C(Cc1ccccc1)NC(=O)OCc1ccccc1)C(=O)NC(Cc1ccccc1)C(=O)NC(Cc1c[nH]c2ccccc12)C(=O)NC(CCCCNC(=O)OCc1ccccc1)C(=O)NC(C(=O)NC(CSN(C)C(C)=O)C(=O)NC(C(N)=O)C(C)OCc1ccccc1)C(C)OCc1ccccc1 (stereo not given) (Cbz-F[X30]FWK(Cbz)T(Bn)[X30]T(Bn)-NH2; configuration not given here)	> 100 µM (inactive)	> 100 µM (inactive)	72.1 µM (inactive)	> 100 µM (inactive)	> 100 µM (inactive)	> 100 µM (inactive)	> 100 µM (inactive)	74.3 µM (inactive)	> 100 µM (inactive)	> 100 µM (inactive)	> 100 µM (inactive)	> 100 µM (inactive)	> 100 µM (inactive)	> 100 µM (inactive)	> 100 µM (inactive)	> 100 µM (inactive)	> 100 µM (inactive)	> 100 µM (inactive)	> 100 µM (inactive)	–
CCOP(=O)(O)CC1OC(CO)C(O)C1O (stereo not given)	> 100 µM (inactive)	> 100 µM (inactive)	> 100 µM (inactive)	> 100 µM (inactive)	> 100 µM (inactive)	> 100 µM (inactive)	> 100 µM (inactive)	–	> 100 µM (inactive)	> 100 µM (inactive)	> 100 µM (inactive)	> 100 µM (inactive)	> 100 µM (inactive)	–	> 100 µM (inactive)	> 100 µM (inactive)	> 100 µM (inactive)	> 100 µM (inactive)	> 100 µM (inactive)	–
Cc1ccc2c(=O)c(C(=O)N(CCO)CCO)c[nH]c2n1	> 100 µM (inactive)	> 100 µM (inactive)	–	> 100 µM (inactive)	> 100 µM (inactive)	> 100 µM (inactive)	> 100 µM (inactive)	> 100 µM (inactive)	> 100 µM (inactive)	> 100 µM (inactive)	> 100 µM (inactive)	> 100 µM (inactive)	> 100 µM (inactive)	> 100 µM (inactive)	> 100 µM (inactive)	> 100 µM (inactive)	> 100 µM (inactive)	> 100 µM (inactive)	> 100 µM (inactive)	> 100 µM (inactive)
